Results from patent US20230210864A1, “AGENT FOR PROMOTING CORNEAL ENDOTHELIAL CELL ADHESION” (Senju Pharmaceutical Co., Ltd., priority 2007, published 2023).

Columns and labels:
[1] = test system: monkey corneal endothelial cells; assay: Cell cycle of monkey corneal endothelial cells (anti-Ki67 antibody immunostaining and flow cytometry); type: cell-based, Macaca fascicularis; conditions: Y-27632 10 μM
Experimental: The Macaca fascicularis corneal endothelial cells passage-cultured in the same manner as in Example 6 were subcultured on a slide glass to a dilution of ¼. A medium for corneal endothelium added with Y-27632 (10 μM) was used for the ROCK inhibitor(+) group and a medium for corneal endothelium without addition of Y-27632 was used for the ROCK inhibitor(−) group. On days 1, 2 and 14 of the passage culture, the corneal endothelial cells on the slide glass were fixed with 4% para-formaldehyde at room temperature for 10 min, and immunostained with anti-Ki67 antibody (FIG. 11). Similarly, moreover, the Macaca fascicularis corneal endothelial cells were passage-cultured to a dilution of ¼ in each of the ROCK inhibitor(+) group and ROCK inhibitor(−) group. On days 1 and 2 of the passage culture, the cells were collected using 0.05% trypsin and subjected to flow cytometry using anti-Ki67 antibody, and the cell cycle was examined (FIGS. 12 and 13).

[2] = test system: monkey corneal endothelial cells; assay: Passage culture of monkey corneal endothelial cells with Y-27632, cell count by CellTiter-Glo; type: cell-based, Macaca fascicularis; conditions: Y-27632 10 μM, dilution ½, ⅙ or ⅛
Experimental: From the corneal tissue isolated from Macaca fascicularis euthanized, Descemet's membrane with corneal endothelial cells attached thereto was separated. The Descemet's membrane was incubated together with Dispase II (1.2 U/ml, Roche Applied Science) under the conditions of 37° C., 5% CO2 for 45 min, and the corneal endothelial cells were mechanically separated by a pipetting operation. The separated corneal endothelial cells were centrifuged and seeded on a media for corneal endothelium. The corneal endothelial cells that reached confluent were incubated with 0.05% trypsin under the conditions of 37° C., 5% CO2 for 10 min, and passage-cultured. After 4 to 6 passages, the corneal endothelial cells were placed in a 96-well plate to a dilution of ½, ⅙ or ⅛. The passage culture was continued using a medium for corneal endothelium added with Y-27632 (10 μM) for the ROCK inhibitor(+) group and a medium for corneal endothelium without addition of Y-27632 for the ROCK inhibitor(−) group. At 24 hr after the passage, the cells were counted in the same manner as in Example 5 using CellTiter-Glo (registered trade mark, Promega) (FIG. 8).

[3] = test system: monkey corneal endothelial cells; assay: Density of cultured monkey corneal endothelial cells over repeated passages; type: cell-based, Macaca fascicularis; conditions: Y-27632 10 μM, passage repeated 7 times
Experimental: From the corneal tissue isolated from Macaca fascicularis euthanized, Descemet's membrane with corneal endothelial cells attached thereto was separated. The Descemet's membrane was incubated together with Dispase II (1.2 U/ml, Roche Applied Science) under the conditions of 37° C., 5% CO2 for 45 min, and the corneal endothelial cells were mechanically separated by a pipetting operation. The separated corneal endothelial cells were centrifuged and seeded on a medium for corneal endothelium. The corneal endothelial cells that reached confluent were incubated with 0.05% trypsin under the conditions of 37° C., 5% CO2 for 10 min, and passage-cultured. A medium for corneal endothelium added with Y-27632 (10 μM) was used for the ROCK inhibitor(+) group and a medium for corneal endothelium without addition of Y-27632 was used for the ROCK inhibitor(−) group. At 72 hr from the start of the culture, the culture medium was exchanged and, after 72 hr, both the ROCK inhibitor(+) group and ROCK inhibitor(−) group were cultured in a normal medium for corneal endothelium free of Y-27632. On every passage, photographs of the cells were taken with a phase contrast microscope, cell density was measured, and the influence of Y-27632 on the density of the cultured monkey corneal endothelial cells was studied.

[4] = test system: rabbit corneal endothelial cells; assay: Culture of rabbit corneal endothelial cells with Y-27632, cells counted by MTS assay; type: cell-based; conditions: primary culture, Y-27632 10 μM
Experimental: From a rabbit corneal tissue isolated immediately after euthanasia, Descemet's membrane with corneal endothelial cells attached thereto was separated. The Descemet's membrane was incubated together with Dispase II (1.2 U/ml, Roche Applied Science) under the conditions of 37° C., 5% CO2 for 45 min, and the corneal endothelial cells were mechanically separated by a pipetting operation. The separated corneal endothelial cells were centrifuged, the cells of a ROCK inhibitor(+) group were stirred in a medium for corneal endothelium added with Y-27632 (10 μM) and the cells of a ROCK inhibitor(−) group were stirred in a medium for corneal endothelium without addition of Y-27632, to the same concentration, and the cells were seeded on a 96 well plate at a density of about 2000 cells per well. As a medium for corneal endothelium, a culture medium (DMEM, Gibco Invitrogen) added with 1% fetal bovine serum and […] bFGF (Gibco Invitrogen) was used. The plate was pre-treated with an FNC coating mix (Athena ES) for 10 min. […] From day 1 to day 3 after the start of the culture, the cells were counted every 24 hr by MTS ([3-(4,5-dimethylthiazol-2-yl)-5-(3-carboxymethoxyphenyl)-2-(4-sulfophenyl)-2H-tetrazolium]) assay using CellTiter 96 (registered trade mark) AQueous One Solution Cell Proliferation (Promega) (FIG. 2).

[5] = test system: monkey corneal endothelial cells; assay: Primary culture of monkey corneal endothelial cells with Y-27632, phase contrast observation; type: cell-based, Macaca fascicularis; conditions: Y-27632 10 μM
Experimental: From the corneal tissue isolated from Macaca fascicularis euthanized for other purpose, Descemet's membrane with corneal endothelial cells attached thereto was separated. For the ROCK inhibitor(+) group, the Descemet's membrane was placed in a medium for corneal endothelium added with Y-27632 (10 μM) and incubated under the conditions of 37° C., 5% CO2 for 10 min. For the ROCK inhibitor(−) group, the membrane was placed in a medium for corneal endothelium without addition of Y-27632 and incubated for 10 min under the same conditions. As the medium for corneal endothelium, the same cell culture medium as in Example 1 was used. The Descemet's membrane after the incubation was incubated together with Dispase II (1.2 U/ml, Roche Applied Science) under the conditions of 37° C., 5% CO2 for 45 min, and the corneal endothelial cells were mechanically separated by a pipetting operation. The separated corneal endothelial cells were centrifuged and stirred in the media for corneal endothelium with Y-27632(+) and Y-27632(−) to the same concentration, and the cells were seeded on a 12 well plate at a density of about 20000 cells per well. The plate was pre-treated with an FNC coating mix (Athena ES) for 10 min. […]

[6] = days 1 and 2 of the passage culture

SMILES: CC(N)[C@H]1CC[C@H](C(=O)Nc2ccncc2)CC1 (single isomer, unassigned; (+)) [Y-27632, (+)-trans-4-(1-aminoethyl)-1-(4-pyridylcarbamoyl)cyclohexane]
- number of Ki67 positive cells by immunostaining, compared to ROCK inhibitor(−) group ([1]; day 14, almost confluent): less than that of the ROCK inhibitor(−) group
- Ki67 positive cells by flow cytometry, compared to ROCK inhibitor(−) group [1, 6]: contained many Ki67 positive cells
- Ki67 positive cells by immunostaining, compared to ROCK inhibitor(−) group [1, 6]: contained many Ki67 positive cells
- number of cells that adhered onto the plate at 24 hr after the passage, compared to medium without Y-27632 [2]: significantly high
- cell density throughout the passage culture, compared to ROCK inhibitor(−) group [3]: higher cell density
- cell adhesion in 24 hr (day 1) after cell seeding as compared to the ROCK inhibitor(−) group [4]: about 2.8 fold
- cell growth at day 3 when the cells reached confluent, difference from ROCK inhibitor(−) group ([4]; day 3): a significant difference was not found
- number of days before reaching confluent ([5]; 7 for ROCK inhibitor(−)): 3 days
- cells adhered onto the plate as compared to ROCK inhibitor(−) ([5]; after 24 hr from the start of the culture): apparently more cells were adhered onto the plate
